Assays:
ST070 ovarian PDX tumors = assay: In vivo activity against ovarian tumors; set-up: species or system mice; conditions: Conjugate 5 0.5 μmol/kg SIW; EC1456 4.0 μmol/kg SIW; paclitaxel 15 mg/kg SIW; two weeks
Procedure: (§1) Mice were maintained and tumor volumes were measures according to Method 3.
(§2) Primary human Ovarian model ST070 fragments (2-4 mm in diameter) were inoculated subcutaneously at the right flank of each mouse. Mice were randomized into experimental groups of 7 mice each and test articles were injected through the lateral tail vein under sterile conditions in a volume of […] of phosphate-buffered saline (PBS).

TNBC PDX tumor = assay: In vivo activity against triple negative breast tumors (FIG. 10); set-up: species or system mice; conditions: Conjugate 5 0.27 μmol/kg BIW two weeks; erubulin mesylate 1.0 μmol/kg SIW two weeks
Procedure: as §1
as §2, with “TNBC” for “Ovarian”, “ST502 (2-4 mm in diameter) or primary human TNBC model ST738” for “ST070 fragments”

Row | Compound | ovarian PDX tumor size compared to untreated control (ST070 ovarian PDX tumors) | TNBC PDX tumor size compared to untreated control (TNBC PDX tumor)
1 | CC(=O)O[C@H]1C(=O)[C@@]2(C)[C@H]([C@H](OC(=O)c3ccccc3)[C@]3(O)C[C@H](OC(=O)[C@H](O)[C@@H](NC(=O)c4ccccc4)c4ccccc4)C(C)=C1C3(C)C)[C@]1(OC(C)=O)CO[C@@H]1C[C@@H]2O [paclitaxel, reference compound] | did not decrease ovarian PDX tumor size | –
2 | erubulin mesylate [reference compound] | – | did not decrease TNBC PDX tumor size

Source: patent US20200038514A1, “FOLATE CONJUGATE FOR USE IN TARGETING TUMOR ASSOCIATED MACROPHAGES” (ENDOCYTE, INC., priority 2016, published 2020)
